These results are taken from patent US11440886B2, “Anti-inflammatory compound, and preparation and use thereof” (E-Nitiate Biopharmaceuticals (Hangzhou) Co., Ltd., priority 2018, dated 2022).

Chain of human recombinant PDE4B1 enzyme (Q07343 whole entry): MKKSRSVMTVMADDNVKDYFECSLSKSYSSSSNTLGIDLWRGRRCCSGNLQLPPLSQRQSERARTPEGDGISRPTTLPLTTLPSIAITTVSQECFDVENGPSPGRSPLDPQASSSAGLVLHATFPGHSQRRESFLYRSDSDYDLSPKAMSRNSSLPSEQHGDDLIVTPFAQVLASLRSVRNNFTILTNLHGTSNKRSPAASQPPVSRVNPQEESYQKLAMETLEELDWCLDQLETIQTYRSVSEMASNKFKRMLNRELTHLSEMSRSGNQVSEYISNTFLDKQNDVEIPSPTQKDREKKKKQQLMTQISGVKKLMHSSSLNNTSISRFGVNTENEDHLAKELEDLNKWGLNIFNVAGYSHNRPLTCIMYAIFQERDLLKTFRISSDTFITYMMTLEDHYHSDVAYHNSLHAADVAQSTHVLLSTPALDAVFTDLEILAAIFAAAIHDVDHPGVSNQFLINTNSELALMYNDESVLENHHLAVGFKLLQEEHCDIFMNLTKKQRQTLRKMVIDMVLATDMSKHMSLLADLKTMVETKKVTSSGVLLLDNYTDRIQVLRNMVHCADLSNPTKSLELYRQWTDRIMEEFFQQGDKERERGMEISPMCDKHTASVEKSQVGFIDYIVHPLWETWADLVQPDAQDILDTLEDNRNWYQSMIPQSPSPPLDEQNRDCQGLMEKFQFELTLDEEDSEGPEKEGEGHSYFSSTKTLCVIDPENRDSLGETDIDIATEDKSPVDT

This experiment concerns the target human recombinant PDE4B1 enzyme (Homo sapiens (Human), UniProt Q07343). The experiment in a line: Inhibition of PDE4B1 activity by cAMP HTRF assay. The format is biochemical. The conditions noted are these: human recombinant PDE4B1, cAMP 40 nM, pH 7.4. How it is done:
Determination of the inhibition of the compounds on PDE4B1 activity by using cAMP HTRF® assay
The inhibitory effect of the compounds on human PDE4B1 enzyme activity was determined by quantifying the 5′-adenosine monophosphate (5′-AMP) formed from 3′,5′-cyclic adenosine monophosphate (cAMP).
The test compound or water (control) and human recombinant PDE4B1 enzyme (4.8 U) were mixed in a buffer solution (pH 7.4) consisting of 1× Hanks' balanced salt solution (HBSS), 5 mM HEPES, 3 mM MgCl2, and 0.1% BSA and incubated for 10 min. A cAMP enzyme substrate (final concentration 40 nM) was added, and the mixture was incubated at room temperature for 60 min. Then a fluorescent acceptor (Dye2 labeled with cAMP), a fluorescent donor (anti-cAMP antibody labeled with europium cryptate) and a non-specific phosphodiesterase inhibitor IBMX (3-isobutyl-1-methyl xanthine; final concentration 1 mM) were added. After 60 min, the fluorescence transfer related to the amount of remaining cAMP was measured on a microplate reader (Rubystar, BMG) at λex=337 nm, λem=620 nm and λem=665 nm. The enzyme activity is calculated from the ratio of the signals measured at 665 nm and 620 nm. The results are expressed as percent inhibition of the enzyme activity of the control (without PDE4 inhibitor). The enzyme was omitted for measurement of the basic control. The IC50 value (IC50=the concentration that caused the half-maximum inhibition of the specific activity of the control) is derived from dose-response measurements with eight different concentrations (n=2; repeated 2 times)
As for `COc1ccc(C(=O)Cn2c(C)cc(=O)cc2C)cc1OCC(C)C` [Example 16, 1-(2-(3-iso-butoxy-4-methoxyphenyl)-2-oxoethyl)-2,6-dimethylpyridin-4(1H)-one], the IC50 – broadly, the concentration at which inhibition is half-maximal – was determined as 10.3 nM. `COc1ccc(/C(=C/n2c(C)cc(=O)cc2C)c2ccccc2)cc1OCC1CC1` [Example 104-1, (E)-1-(2-(3-cyclopropylmethoxy-4-methoxyphenyl)-2-phenylethenyl)-2,6-dimethylpyridin-4(1H)-one]: the 50% inhibitory concentration (IC50) came to 1700 nM.

As for `Cc1cc(=O)cc(C)n1/C=C/c1ccc(OC(F)F)c(O[C@@H]2CC[S+]([O-])C2)c1` (single isomer, unassigned) [Example 101-2], the IC50 was determined as 26 nM.

As for `COc1ccc(C(O)Cn2c(C)cc(=O)cc2C)cc1OCC1CC1` (stereo not shown) [Example 1, 1-(2-(3-cyclopropylmethoxy-4-methoxyphenyl)-2-hydroxyethyl)-2,6, dimethylpyridin-4(1H)-one], the half-maximal inhibitory concentration (IC50) was 760 nM.

Take `COc1ccc(/C(C#N)=C/n2c(C)cc(=O)cc2C)cc1OC` [Example 115]: the concentration for half-maximal inhibition (IC50) is 9.9 nM. To `CO/N=C(\Cn1c(C)cc(=O)cc1C)c1ccc(OC)c(OCC2CC2)c1` [Example 39, (Z)-1-(2-(3-cyclopropylmethoxy-4-methoxyphenyl)-2-(methoxyimido)ethyl)-2,6-dimethylpyridin-4(1H)-one] belongs 1070 nM; to `Cc1cc(=O)cc(C)n1/C=C/c1ccc(OC(F)F)c(O[C@H]2CCS(=O)(=O)C2)c1` [Example 99, (S,E)-1-(3-(1,1-dioxotetrahydrothiophen-3-yl)oxy-4-difluoromethoxystyryl)-2,6-dimethylpyridin-4(1H)-one], 59 nM. For the compound `COc1ccc(C(=O)Cn2c(C)cc(=O)cc2C)cc1OC(C)C` [Example 14, 1-(2-(3-isopropoxy-4-methoxyphenyl)-2-oxoethyl)-2,6-dimethylpyridin-4(1H)-one], the IC50 turned out to be 21 nM. `COc1ccc(/C(Cn2c(C)cc(=O)cc2C)=N/O)cc1OCC1CC1` [Example 38-1, (Z)-1-(2-(3-cyclopropylmethoxy-4-methoxyphenyl)-2-(hydroxyimido)ethyl)-2,6-dimethylpyridin-4(1H)-one]: the half-inhibitory concentration (IC50) was 1090 nM. `COc1ccc(/C=C/n2c(C)cc(=O)cc2C)cc1O[C@@H]1CC[S+]([O-])C1` (single isomer, unassigned) [Example 86-2]: the 50% inhibitory concentration (IC50) stood at 81 nM. With `COc1ccc(/C=C/n2c(C)cc(=O)cc2C)cc1OCCS(C)(=O)=O` [Example 79, (E)-1-(3-methylsulfoneethoxy-4-methoxystyryl)-2,6-dimethylpyridin-4(1H)-one], the 50% inhibitory concentration (IC50) is 160 nM. Consider `CCCCCCOc1cc(C(=O)Cn2c(C)cc(=O)cc2C)ccc1OC` [Example 18, 1-(2-(3-n-hexyloxy-4-methoxyphenyl)-2-oxoethyl)-2,6-dimethylpyridin-4(1H)-one], for which the half-inhibitory concentration (IC50) was determined as 4.5 nM.

`COc1ccc(C(=O)Cn2c(C)cc(=O)cc2C)cc1OC1CCCCC1` [Example 24, 1-(2-(3-cyclohexyloxy-4-methoxyphenyl)-2-oxoethyl)-2,6-dimethylpyridin-4(1H)-one]: the IC50 turned out to be 23 nM.

For the compound `COc1ccc(C(=O)Cn2c(C)cc(=O)cc2C)cc1OC1CCCC1` [Example 23, 1-(2-(3-cyclopentyloxy-4-methoxyphenyl)-2-oxoethyl)-2,6-dimethylpyridin-4(1H)-one], the 50% inhibitory concentration (IC50) came out at 5 nM.

`COc1ccc(C2CC2n2c(C)cc(=O)cc2C)cc1OCC1CC1` (stereo not shown) [Example 48, 1-(2-(3-cyclopropylmethoxy-4-methoxyphenyl)cyclopropyl)-2,6-dimethylpyridin-4(1H)-one]: the IC50 was found to be 420 nM. Regarding `COc1ccc(C(=O)Cn2c(C)cc(=O)cc2C)cc1O` [Example 10, 1-(2-(3-hydroxy-4-methoxyphenyl)-2-oxoethyl)-2,6-dimethylpyridin-4(1H)-one], the IC50 is 3300 nM. Take `Cc1cc(=O)cc(C)n1/C=C/c1ccc(OC(F)F)c(O[C@@H]2CCSC2)c1` [Example 100, (R,E)-1-(3-(tetrahydrothiophen-3-yl)oxy-4-difluoromethoxystyryl)-2,6-dimethylpyridin-4(1H)-one]: the IC50 amounted to 1.5 nM.

In the case of `COc1ccc(/C=C/n2c(C)cc(=O)cc2C)cc1OCC=C(C)C` [Example 65, (E)-1-((3-(3-methylbut-2-en-1-yl)oxy-4-methoxy)-styryl)-2,6-dimethylpyridin-4(1H)-one], the IC50 came to 520 nM. To `COc1ccc(C(=O)Cn2c(C)cc(=O)cc2C)cc1OCCS(C)(=O)=O` [Example 37, 1-(2-(3-methylsulfoneethoxy-4-methoxyphenyl)-2-oxoethyl)-2,6-dimethylpyridin-4(1H)-one] belongs 510 nM. On to `COc1ccc(/C=C/n2c(C)cc(=O)cc2C)cc1OC1CC=CC1` [Example 63, (E)-1-(3-(cyclopent-3-en-1-yloxy)-4-methoxystyryl)-2,6-dimethylpyridin-4(1H)-one], for which the IC50 stood at 11.1 nM. As to `Cc1cc(=O)cc(C)n1/C=C/c1ccc(OC(F)F)c(OC[S+](C)[O-])c1` (stereo not shown) [Example 91, (E)-1-(3-methylsulfoxidemethoxy-4-difluoromethoxystyryl)-2,6-dimethylpyridin-4(1H)-one], the IC50 came to 75 nM.

On to `Cc1cc(=O)cc(C)n1/C=C/c1ccc(OC(F)F)c(OCS(C)(=O)=O)c1` [Example 92, (E)-1-(3-methylsulfonemethoxy-4-difluoromethoxy-styryl)-2,6-dimethylpyridin-4(1H)-one], for which the IC50 is 94 nM. As to `COc1ccc(/C=C/n2c(C)cc(=O)cc2C)cc1OCC1CC1` [Example 59, (E)-1-(3-cyclopropylmethoxy-4-methoxystyryl)-2,6-dimethylpyridin-4(1H)-one], the IC50 is 5.1 nM. To `COc1ccc(/C(=C\n2c(C)cc(=O)cc2C)c2ccccc2)cc1OCC1CC1` [Example 104-2, (Z)-1-(2-(3-cyclopropylmethoxy-4-methoxyphenyl)-2-phenylethenyl)-2,6-dimethylpyridin-4(1H)-one] belongs 8400 nM. In the case of `COc1ccc(/C=C/n2c(C)cc(=O)cc2C)cc1OCSC` [Example 74, (E)-1-(3-methylthiomethoxy-4-methoxystyryl)-2,6-dimethylpyridin-4(1H)-one], the IC50 came out at 38 nM. Take `COc1ccc(/C=C/n2c(C)cc(=O)cc2C)cc1OCC(C)(C)C` [Example 57, (E)-1-((3-neopentyloxy-4-methoxy)-styryl)-2,6-dimethylpyridin-4(1H)-one]: the IC50 is 100 nM. On to `C=CCOc1cc(/C=C/n2c(C)cc(=O)cc2C)ccc1OC` [Example 64, (E)-1-(3-allyloxy-4-methoxy-styryl)-2,6-dimethylpyridin-4(1H)-one], for which the IC50 is 43 nM. Turning to `COc1ccc(C(Cn2c(C)cc(=O)cc2C)OC(=O)C=C(C)C)cc1OCC1CC1` (stereo not shown) [Example 7, (1-(3-cyclopropylmethoxy-4methoxyphenyl)-2-(2,6-dimethyl-4-carbonylpyridin-1(4H)-yl)ethyl) 3-methylcrotonate], the IC50 came out at 5.7 nM.

With `COc1ccc(/C=C/n2c(C)cc(=O)cc2C)cc1OC1CCS(=O)(=O)C1` (stereo not shown) [Example 81, (E)-1-(3-((1,1,-dioxotetrahydrothiophen-3-yl)oxy)-4-methoxystyryl)-2,6-dimethylpyridin-4(1H)-one], the IC50 turned out to be 1.15 nM.

As for `CCCOc1cc(/C=C/n2c(C)cc(=O)cc2C)ccc1OC` [Example 53, (E)-1-(3-propoxy-4-methoxystyryl)-2,6-dimethylpyridin-4(1H)-one], the half-maximal inhibitory concentration (IC50) came to 15 nM. Regarding `COc1ccc(/C(C)=C/n2c(C)cc(=O)cc2C)cc1OCC1CC1` [Example 103, (E)-1-(2-(3-cyclopropylmethoxy-4-methoxyphenyl)-2-methylethenyl)-2,6-dimethylpyridin-4(1H)-one], the IC50 came out at 14 nM.

Turning to `COc1ccc(/C=C/n2c(C)cc(=O)cc2C)cc1OC1CC1` [Example 58, (E)-1-(3-cyclopropyloxy-4-methoxystyryl)-2,6-dimethylpyridin-4(1H)-one], the IC50 worked out at 5.5 nM.

Take `CCN(CC)C(=O)/C(=C\n1c(C)cc(=O)cc1C)c1ccc(OC)c(OCC2CC2)c1` [Example 110, (Z)-2-(3-cyclopropylmethoxy-4-methoxyphenyl)-3-(2,6-dimethyl-4-carbonylpyridin-1(4H)-yl)-N,N-diethylacrylamide]: the IC50 is 460 nM. In the case of `COc1ccc(/C(Cn2c(C)cc(=O)cc2C)=N/OCSC)cc1OCC1CC1` [Example 41, (Z)-1-(2-(3-cyclopropylmethoxy-4-methoxyphenyl)-2-(methylthiomethoxyimido)ethyl)-2,6-dimethylpyridin-4(1H)-one], the 50% inhibitory concentration (IC50) was found to be 1.22 nM. Regarding `Cc1cc(=O)cc(C)n1CC(=O)c1ccc(OC(F)F)c(OCC2CC2)c1` [Example 49, 1-(2-(3-cyclopropylmethoxy-4-difluoromethoxyphenyl)-2-oxoethyl)-2,6-dimethylpyridin-4(1H)-one], the half-maximal inhibitory concentration (IC50) was 2.9 nM. The result for `Cc1cc(=O)cc(C)n1/C=C/c1ccc(OC(F)F)c(O[C@H]2CC[S+]([O-])C2)c1` (single isomer, unassigned) [Example 98-2] reads 12.5 nM; that for `COc1ccc(C(=O)Cn2c(C)cc(=O)cc2C)cc1OCC=C(C)C` [Example 27, 1-(2-(3-((3-methylbut-2-en-1-yl)oxy)-4-methoxyphenyl)-2-oxoethyl)-2,6-dimethylpyridin-4(1H)-one], 65 nM.
